Experimental data reported in ChEMBL document CHEMBL1150977, “A quantitative analysis of kinase inhibitor selectivity” (Nat Biotechnol, 2008).

How the values were obtained:
[1] = target: TGF-beta receptor type-2 (Homo sapiens, UniProt P37173)
[2] = target: T1, cGMP-dependent protein kinase 1 (Homo sapiens, UniProt Q13976)
T1 sequence (Q13976 whole entry): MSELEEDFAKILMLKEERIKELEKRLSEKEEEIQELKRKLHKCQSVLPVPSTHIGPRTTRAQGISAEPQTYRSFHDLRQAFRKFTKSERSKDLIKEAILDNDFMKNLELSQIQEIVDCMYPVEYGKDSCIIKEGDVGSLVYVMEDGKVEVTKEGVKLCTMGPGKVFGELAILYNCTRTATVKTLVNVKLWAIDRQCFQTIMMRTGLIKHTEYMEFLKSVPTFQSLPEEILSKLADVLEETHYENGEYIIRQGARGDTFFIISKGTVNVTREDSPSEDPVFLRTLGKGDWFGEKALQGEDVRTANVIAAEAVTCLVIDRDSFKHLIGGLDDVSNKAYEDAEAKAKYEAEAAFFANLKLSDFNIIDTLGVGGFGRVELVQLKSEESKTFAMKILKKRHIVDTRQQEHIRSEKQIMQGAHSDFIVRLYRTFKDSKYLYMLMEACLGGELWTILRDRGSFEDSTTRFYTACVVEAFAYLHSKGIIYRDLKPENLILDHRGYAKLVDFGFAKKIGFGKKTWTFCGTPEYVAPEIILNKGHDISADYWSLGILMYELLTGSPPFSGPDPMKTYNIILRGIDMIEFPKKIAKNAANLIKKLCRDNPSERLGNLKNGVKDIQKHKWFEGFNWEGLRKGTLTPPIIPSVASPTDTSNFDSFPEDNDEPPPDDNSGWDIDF

[3] = target: T2, Ephrin type-B receptor 1 (Homo sapiens, UniProt P54762)
T2 sequence (P54762 whole entry): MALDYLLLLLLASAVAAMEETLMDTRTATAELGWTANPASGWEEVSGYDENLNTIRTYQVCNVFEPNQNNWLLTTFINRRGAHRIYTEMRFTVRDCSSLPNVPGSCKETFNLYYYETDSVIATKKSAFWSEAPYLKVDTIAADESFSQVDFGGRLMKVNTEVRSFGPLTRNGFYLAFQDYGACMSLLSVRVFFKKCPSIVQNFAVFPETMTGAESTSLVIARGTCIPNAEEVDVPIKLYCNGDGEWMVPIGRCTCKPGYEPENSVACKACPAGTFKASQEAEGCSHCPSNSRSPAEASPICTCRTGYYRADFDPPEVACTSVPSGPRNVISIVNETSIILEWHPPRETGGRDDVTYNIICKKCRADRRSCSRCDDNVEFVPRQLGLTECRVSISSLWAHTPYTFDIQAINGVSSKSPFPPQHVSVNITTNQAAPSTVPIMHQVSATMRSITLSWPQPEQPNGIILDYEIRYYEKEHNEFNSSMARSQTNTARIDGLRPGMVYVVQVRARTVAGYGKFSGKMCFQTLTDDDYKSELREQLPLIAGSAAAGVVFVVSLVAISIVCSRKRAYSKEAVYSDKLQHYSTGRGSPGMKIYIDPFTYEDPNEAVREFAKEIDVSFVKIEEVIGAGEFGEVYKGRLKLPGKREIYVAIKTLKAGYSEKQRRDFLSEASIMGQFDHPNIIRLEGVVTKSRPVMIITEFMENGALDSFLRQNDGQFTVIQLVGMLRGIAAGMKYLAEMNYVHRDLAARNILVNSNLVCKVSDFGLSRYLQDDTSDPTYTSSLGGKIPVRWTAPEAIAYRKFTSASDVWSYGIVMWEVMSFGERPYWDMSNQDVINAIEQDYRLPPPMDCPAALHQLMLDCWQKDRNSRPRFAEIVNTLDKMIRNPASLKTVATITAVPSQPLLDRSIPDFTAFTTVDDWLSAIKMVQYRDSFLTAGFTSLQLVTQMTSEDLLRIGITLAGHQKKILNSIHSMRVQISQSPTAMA

[4] = target: T3, Tyrosine-protein kinase Mer (Homo sapiens, UniProt Q12866)
T3 sequence (Q12866 whole entry): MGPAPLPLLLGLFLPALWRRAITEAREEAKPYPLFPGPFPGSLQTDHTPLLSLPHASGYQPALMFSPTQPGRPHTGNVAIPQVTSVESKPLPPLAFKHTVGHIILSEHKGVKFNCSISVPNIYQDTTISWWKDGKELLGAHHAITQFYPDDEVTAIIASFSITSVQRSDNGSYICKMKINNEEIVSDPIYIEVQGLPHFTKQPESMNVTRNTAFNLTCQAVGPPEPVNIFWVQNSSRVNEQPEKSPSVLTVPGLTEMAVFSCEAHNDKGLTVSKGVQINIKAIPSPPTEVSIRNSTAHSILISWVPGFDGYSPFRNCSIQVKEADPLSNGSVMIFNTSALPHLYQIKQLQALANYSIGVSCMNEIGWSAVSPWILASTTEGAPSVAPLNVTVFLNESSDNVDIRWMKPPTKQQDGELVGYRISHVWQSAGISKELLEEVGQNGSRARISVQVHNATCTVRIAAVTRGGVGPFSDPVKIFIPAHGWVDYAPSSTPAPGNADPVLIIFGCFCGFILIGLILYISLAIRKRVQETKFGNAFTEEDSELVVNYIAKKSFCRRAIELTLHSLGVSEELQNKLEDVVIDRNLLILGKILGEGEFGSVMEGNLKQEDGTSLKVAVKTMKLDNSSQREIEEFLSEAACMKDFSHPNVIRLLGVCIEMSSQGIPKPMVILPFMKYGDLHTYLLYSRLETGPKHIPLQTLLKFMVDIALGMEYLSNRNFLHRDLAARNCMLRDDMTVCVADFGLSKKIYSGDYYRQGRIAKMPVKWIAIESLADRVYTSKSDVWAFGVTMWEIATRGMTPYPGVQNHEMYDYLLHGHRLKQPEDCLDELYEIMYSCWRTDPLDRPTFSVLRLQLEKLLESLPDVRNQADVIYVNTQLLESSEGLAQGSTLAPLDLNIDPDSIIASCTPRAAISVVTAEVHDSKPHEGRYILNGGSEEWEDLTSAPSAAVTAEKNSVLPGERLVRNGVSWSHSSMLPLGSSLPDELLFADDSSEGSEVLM

[5] = target: Leukocyte tyrosine kinase receptor (Homo sapiens, UniProt P29376)
Chain of Leukocyte tyrosine kinase receptor (P29376 whole entry): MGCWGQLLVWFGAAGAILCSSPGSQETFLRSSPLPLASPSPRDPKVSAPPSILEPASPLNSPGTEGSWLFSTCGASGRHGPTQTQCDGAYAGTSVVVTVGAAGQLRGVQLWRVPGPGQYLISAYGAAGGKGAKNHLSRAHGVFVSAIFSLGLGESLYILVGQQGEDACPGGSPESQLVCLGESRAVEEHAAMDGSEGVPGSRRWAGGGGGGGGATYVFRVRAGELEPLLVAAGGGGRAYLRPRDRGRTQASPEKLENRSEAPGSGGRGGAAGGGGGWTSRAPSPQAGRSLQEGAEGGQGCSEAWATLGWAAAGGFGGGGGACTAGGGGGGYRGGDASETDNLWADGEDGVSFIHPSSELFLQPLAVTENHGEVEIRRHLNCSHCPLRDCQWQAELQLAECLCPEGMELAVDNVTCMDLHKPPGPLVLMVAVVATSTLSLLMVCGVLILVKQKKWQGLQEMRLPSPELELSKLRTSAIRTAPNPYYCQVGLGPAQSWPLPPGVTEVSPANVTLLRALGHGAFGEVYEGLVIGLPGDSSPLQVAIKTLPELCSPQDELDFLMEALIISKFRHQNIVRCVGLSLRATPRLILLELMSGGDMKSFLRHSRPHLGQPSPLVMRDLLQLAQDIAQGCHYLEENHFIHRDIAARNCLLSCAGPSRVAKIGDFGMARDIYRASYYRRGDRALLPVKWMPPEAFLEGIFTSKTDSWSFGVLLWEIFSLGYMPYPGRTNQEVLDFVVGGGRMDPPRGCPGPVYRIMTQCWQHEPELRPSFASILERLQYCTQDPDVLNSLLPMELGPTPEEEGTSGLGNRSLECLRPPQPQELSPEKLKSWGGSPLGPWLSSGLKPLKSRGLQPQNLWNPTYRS

Chain of TGF-beta receptor type-2 (P37173 whole entry): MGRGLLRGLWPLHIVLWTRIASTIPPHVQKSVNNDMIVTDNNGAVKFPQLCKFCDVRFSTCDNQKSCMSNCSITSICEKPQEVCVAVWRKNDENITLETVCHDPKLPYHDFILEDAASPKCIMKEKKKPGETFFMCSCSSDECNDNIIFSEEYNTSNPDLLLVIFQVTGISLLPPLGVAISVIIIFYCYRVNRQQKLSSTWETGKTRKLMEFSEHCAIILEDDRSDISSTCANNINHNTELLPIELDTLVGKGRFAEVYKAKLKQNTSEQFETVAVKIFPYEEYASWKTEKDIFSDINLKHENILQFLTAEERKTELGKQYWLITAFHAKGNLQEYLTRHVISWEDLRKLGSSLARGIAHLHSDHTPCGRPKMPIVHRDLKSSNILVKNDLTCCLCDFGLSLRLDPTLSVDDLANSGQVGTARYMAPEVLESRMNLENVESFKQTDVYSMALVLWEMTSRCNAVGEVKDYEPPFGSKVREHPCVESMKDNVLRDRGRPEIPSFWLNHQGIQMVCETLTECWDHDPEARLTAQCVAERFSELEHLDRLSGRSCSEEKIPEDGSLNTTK

| SMILES | Kd [1] | Kd [2] | Kd [3] | Kd [4] | Kd [5] |
| --- | --- | --- | --- | --- | --- |
| COCC(=O)NC/C=C/c1ccc2ncnc(Nc3ccc(Oc4ccc(C)nc4)c(C)c3)c2c1 [CP-724714] | > 10 µM | > 10 µM | > 10 µM | > 10 µM | > 10 µM |
| NC(=O)c1ccc(-c2nc(-c3ccc4c(c3)OCO4)c(-c3ccccn3)[nH]2)cc1 [SB-431542] | – | > 10 µM | > 10 µM | > 10 µM | > 10 µM |
| Nc1nc(Nc2ccc(S(N)(=O)=O)cc2)nn1C(=O)c1c(F)cccc1F [JNJ-7706621] | > 10 µM | > 10 µM | > 10 µM | – | > 10 µM |
| CCOc1cc2ncc(C#N)c(Nc3ccc(F)c(Cl)c3)c2cc1NC(=O)/C=C/CN(C)C [PELITINIB] | > 10 µM | > 10 µM | – | 1.3 µM | > 10 µM |
| Oc1ccc(-c2nc(-c3ccncc3)c(-c3ccc(F)cc3)[nH]2)cc1 [SB-202190] | > 10 µM | > 10 µM | > 10 µM | > 10 µM | > 10 µM |
